Measured values reported in US20220305023A1, “Chlorophyllin Containing Pharmaceutical Composition For Prevention Of Pathogenesis Of Coronavirus Disease” (priority 2021, published 2022).

Key:
[1] = system: SARS-CoV-2 virus; type: cell-based
[2] = Acute oral toxicity (oral gavage); type: in vivo, mice and rats
Protocol: (§1) Different doses of Chlorophyllin (100 to 5000 mg/kg body weight) were given to mice and rats (6 males, 6 females) by oral gavage in an accredited facility for animal toxicity testing.

[3] = 28 day repeat dose toxicity; type: in vivo, rats; settings: 1000 mg/kg body weight daily for 28 consecutive days
Protocol: as §1

[4] = system: neutrophils; experiment: Phase I study: absolute neutrophil count (ANC) in blood; type: in vivo, human
Protocol: (§2) An open label Phase I clinical study was conducted to assess pharmacodynamics of sodium copper Chlorophyllin in healthy adult, human male subjects under fasting conditions. The study was approved by Drug Controller General of India (DCGI). The trial is registered with the Clinical Trial Registry of India (CTRI/2018/09/015576). Five healthy male subjects were allowed to fast overnight and one Chlorophyllin tablet (750 mg) was administered to each subject by oral route along with ˜200 ml water. The subjects were given breakfast, lunch and snacks and a second tablet of Chlorophyllin (750 mg) was administered to each subject by oral route along with 200 ml water after 12 hr.
(§3) Chlorophyllin tablets comprising Chlorophyllin or salts thereof (750 mg), were administered to healthy human subjects after overnight fasting. Blood samples were collected through an indwelling intravenous cannula (Venflon) placed in the fore arm vein of the subjects at different time intervals. Absolute neutrophil count (ANC) and white blood cell (WBC) counts were measured. Serum was separated and chemokine concentration in the serum was measured using cytometric bead array.

[5] = system: white blood cells; experiment: Phase I study: white blood cell (WBC) count in blood; type: in vivo, human; settings: 8-16 hr after first dose of 750 mg
Protocol: as §2, §3

[6] = system: lymphocytes; experiment: Phase I study: absolute lymphocyte count in blood; type: in vivo, human; settings: 750 mg tablets, healthy subjects
Protocol: as §2, §3

[7] = system: CD34+ hematopoietic stem and progenitor cells; experiment: Phase I study: CD34+ hematopoietic stem and progenitor cells in blood by flow cytometry; type: in vivo, human; settings: 750 mg tablets, five subjects
Protocol: as §2
Blood sample at each time point was also collected in K2EDTA vacutainer tube and erythrocytes were lysed using RBC lysis buffer. Then cells were stained with fixable far red live dead reagent and PE-CD34 and FITC-CD45 antibodies at 4° C. and fixed with 4% formaldehyde. The frequency of CD34+ hematopoietic stem and progenitor cells in the blood was determined by flow cytometry and FlowJo software.

[8] = Phase I study: tolerability in healthy human subjects; type: in vivo; settings: 750 mg given twice a day, five subjects
Protocol: as §2

[9] = system: Vero CCL-81 cells; settings: 5 μM

Sodium copper Chlorophyllin
effect on SARS-CoV-2 virus multiplication ([1]; 0.1 micro molar): did not inhibit | inhibition of SARS-CoV-2 multiplication ([1]; 5 micro-molar, 72 hr, Vero CCL-81 cells): ~87% | concentration required for ~90% inhibition of multiplication of SARS-CoV-2 virus ([1]; Vero CCL-81 cells, 72 hr): about 5 micro molar | EC50 ([1]; Vero CCL-81 cells, 72 hr, read-out: concentration required to inhibit SARS-CoV-2 multiplication by 50% (EC50)): < 1000 nM | effect on multiplication of SARS-CoV-2 virus ([1]; less than 1 micro-molar): did not significantly decrease | signs of toxicity ([2]; rodents, indicated doses (acute up to 5000 mg/kg; 1000 mg/kg for 28 days)): no signs of toxicity | LD50 ([2]; rodents, oral, proposed from absence of toxicity): higher than 5000 mg/kg body weight | tolerability of acute oral dose ([2]; up to 5000 mg/kg body weight, oral gavage, mice and rats): well tolerated | tolerability of repeat dose [3]: well tolerated | time to ANC increase after first dose ([4]; 750 mg, 4 hr before second dose): ≤ 8 h | increase in ANC relative to pre-dose value ([4]; 8-16 hr after first dose of 750 mg, fasting, five subjects): 12.4-32.5% | increase in WBC count relative to pre-dose value [5]: 12.8-26.5% | increase in lymphocyte counts in human blood as compared to pre-dose value [6]: up to 30% | relative decrease in percentage of CD34+ HPSCs in human blood as compared to pre-dose value [7]: 50-85% | tolerability in human subjects [8]: well tolerated | cytotoxicity in the target cells [9]: without causing cytotoxicity
